Read-outs that look alike come from different tables or passages of the source.
Assays:
Format in all cases: in vivo
Kochia (Kochia scoparia) [1] = test: Test A preemergence; conditions: Bassia scoparia, pre-emergence, 240 h, preemergence, read-out: Kochia plant response rating; for pest or weed control at 125 g/ha: 125 g ai/ha, approx. 10 d; for pest or weed control at 500 g/ha: 500 g ai/ha
Method in brief: (§1)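 Visual injury scores from 0, no effect, to 100, complete control, were assigned versus untreated controls roughly 10 d after treatment in the greenhouse. Test chemicals, formulated with surfactant in a non-phytotoxic solvent, were applied to planted seeds as a preemergence soil spray or postemergence to one- to two-leaf plants 2 to 10 cm tall, in loam–sand soil.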

[2] = test system: barnyardgrass (Echinochloa crus-galli); test: Test A preemergence; conditions: Echinochloa crus-galli, pre-emergence, 240 h; for pest or weed control at 125 g/ha: 125 g ai/ha; for pest or weed control at 500 g/ha: 500 g ai/ha, visual injury rating about 10 d after treatment, 0 to 100 scale (0 no effect, 100 complete control)
Method in brief: as §1

[3] = test system: giant foxtail (Setaria faberii); test: Test A preemergence; conditions: Setaria faberi, pre-emergence, 240 h; for pest or weed control at 125 g/ha: 125 g ai/ha; for pest or weed control at 500 g/ha: 500 g ai/ha
Method in brief: as §1

[4] = test system: pigweed (Amaranthus retroflexus); test: Test A preemergence; conditions: Amaranthus retroflexus, pre-emergence, 240 h, preemergence, read-out: Pigweed plant response rating; for pest or weed control at 125 g/ha: 125 g ai/ha, approx. 10 d; for pest or weed control at 500 g/ha: 500 g ai/ha
[5] = test system: ragweed (common ragweed, Ambrosia elatior); test: Test A preemergence; conditions: Ambrosia artemisiifolia, pre-emergence, 240 h, preemergence, read-out: Ragweed plant response rating; for pest or weed control at 125 g/ha: 125 g ai/ha, approx. 10 d; for pest or weed control at 500 g/ha: 500 g ai/ha
Method in brief: as §1

[6] = test system: ryegrass, Italian (Italian ryegrass, Lolium multiflorum); test: Test A preemergence; conditions: Lolium multiflorum, pre-emergence, 240 h, preemergence, read-out: Ryegrass, Italian plant response rating; for pest or weed control at 125 g/ha: 125 g ai/ha, approx. 10 d; for pest or weed control at 500 g/ha: 500 g ai/ha
Method in brief: as §1

[7] = test system: Galium (catchweed bedstraw, Galium aparine); test: Test A postemergence; conditions: Galium, post-emergence, 240 h, postemergence, read-out: Galium plant response rating; for pest or weed control at 125 g/ha: 125 g ai/ha, visual injury on 0 to 100 scale (0 no effect, 100 complete control), approx. 10 d; for pest or weed control at 500 g/ha: 500 g ai/ha, 0 to 100 scale, 0 is no effect, 100 is complete control
Method in brief: as §1

Kochia (Kochia scoparia) [8] = test: Test A postemergence; conditions: Bassia scoparia, post-emergence, 240 h, postemergence, read-out: Kochia plant response rating; for pest or weed control at 125 g/ha: 125 g ai/ha, visual injury on 0 to 100 scale (0 no effect, 100 complete control), approx. 10 d; for pest or weed control at 500 g/ha: 500 g ai/ha, 0 to 100 scale, 0 is no effect, 100 is complete control
Method in brief: as §1

[9] = test system: ragweed (common ragweed, Ambrosia elatior); test: Test A postemergence; conditions: Ambrosia artemisiifolia, post-emergence, 240 h, postemergence, read-out: Ragweed plant response rating; for pest or weed control at 125 g/ha: 125 g ai/ha, visual injury on 0 to 100 scale (0 no effect, 100 complete control), approx. 10 d; for pest or weed control at 500 g/ha: 500 g ai/ha, 0 to 100 scale, 0 is no effect, 100 is complete control
Method in brief: as §1

[10] = test system: ryegrass, Italian (Italian ryegrass, Lolium multiflorum); test: Test A postemergence; conditions: Lolium multiflorum, post-emergence, 240 h, postemergence, read-out: Ryegrass, Italian plant response rating; for pest or weed control at 125 g/ha: 125 g ai/ha, visual injury on 0 to 100 scale (0 no effect, 100 complete control), approx. 10 d; for pest or weed control at 500 g/ha: 500 g ai/ha, 0 to 100 scale, 0 is no effect, 100 is complete control
Method in brief: as §1

[11] = test system: wheat (Triticum aestivum); test: Test A postemergence; conditions: Triticum aestivum, post-emergence, 240 h, postemergence, read-out: Wheat plant response rating; for plant injury at 125 g/ha: 125 g ai/ha, visual injury on 0 to 100 scale (0 no effect, 100 complete control), approx. 10 d; for plant injury at 500 g/ha: 500 g ai/ha, 0 to 100 scale, 0 is no effect, 100 is complete control
Method in brief: as §1

[12] = test system: barnyardgrass (Echinochloa crus-galli); test: Test B flooded paddy test; conditions: Echinochloa crus-galli, 250 g ai/ha, Flood; 0 to 100 scale where 0 is no effect and 100 is complete control; read-out: Barnyardgrass plant response rating
Method in brief: (§2)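 Response scored visually against untreated controls, 0 = no effect and 100 = complete control, 13–15 d after treatment in the greenhouse. Compounds added to paddy water held 3 cm above soil surface. Treatment given at 2-leaf stage.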

[13] = test system: ducksalad (Heteranthera limosa); test: Test B flooded paddy test; conditions: Heteranthera limosa, 250 g ai/ha, Flood; 0 to 100 scale where 0 is no effect and 100 is complete control; read-out: Ducksalad plant response rating
Method in brief: as §2

rice (Oryra sativa) = test: Test B flooded paddy test; conditions: Oryza sativa, 250 g ai/ha, Flood; 0 to 100 scale where 0 is no effect and 100 is complete control; read-out: Rice plant response rating
Method in brief: as §2

[14] = test system: sedge, umbrella (small-flower umbrella sedge, Cyperus difformis); test: Test B flooded paddy test; conditions: Cyperus difformis, 250 g ai/ha, Flood; 0 to 100 scale where 0 is no effect and 100 is complete control; read-out: Sedge, Umbrella plant response rating
Method in brief: as §2

[15] = 0 to 100 scale where 0 is no effect and 100 is complete control
[16] = visual injury rating about 10 d after treatment, 0 to 100 scale (0 no effect, 100 complete control)
[17] = preemergence, read-out: Barnyardgrass plant response rating

Structure (SMILES)	pest or weed control at 125 g/ha (Kochia (Kochia scoparia) [1]; [15])	pest or weed control at 500 g/ha [2, 17]	pest or weed control at 125 g/ha [4, 15]	pest or weed control at 125 g/ha [5, 15]	pest or weed control at 125 g/ha [6, 15]	pest or weed control at 125 g/ha [7]	pest or weed control at 500 g/ha [7]	pest or weed control at 125 g/ha (Kochia (Kochia scoparia) [8])	pest or weed control at 500 g/ha (Kochia (Kochia scoparia) [8])	pest or weed control at 125 g/ha [9]	pest or weed control at 500 g/ha [9]	pest or weed control at 125 g/ha [10]	pest or weed control at 500 g/ha [10]	plant injury at 125 g/ha [11]	plant injury at 500 g/ha [11]	pest or weed control at 250 g/ha [12]	pest or weed control at 250 g/ha [13]	pest or weed control at 250 g/ha (rice (Oryra sativa))	pest or weed control at 250 g/ha [14]	other results
CC(C)=CC1CNC(=O)C1C(=O)Nc1ccccc1S(C)(=O)=O (stereo not shown) [Compound 1057]	0%	0%	0%	0%	0%	0%	0%	0%	0%	0%	0%	0%	0%	0%	0%	30%	85%	0%	0%	pest or weed control at 500 g/ha (Kochia (Kochia scoparia) [1]; [16]): 0%; pest or weed control at 125 g/ha ([2]; Preemergence, visual injury rating after approximately 10 d, read-out: Barnyardgrass plant response rating (0 to 100 scale, 0 is no effect, 100 is complete control)): 0%; pest or weed control at 125 g/ha ([3]; Preemergence, visual injury rating after approximately 10 d, read-out: Foxtail, Giant plant response rating (0 to 100 scale, 0 is no effect, 100 is complete control)): 0%; pest or weed control at 500 g/ha ([3]; preemergence, visual injury rating about 10 d after treatment, 0 to 100 scale (0 no effect, 100 complete control), read-out: Foxtail, Giant plant response rating): 0%; pest or weed control at 500 g/ha [4, 16]: 0%; pest or weed control at 500 g/ha [5, 16]: 0%; pest or weed control at 500 g/ha [6, 16]: 0%
CN1C[C@H](c2cscn2)[C@@H](C(=O)Nc2cccc(F)c2F)C1=O [Compound 1113]	0%	0%	0%	0%	0%	0%	0%	0%	0%	0%	0%	0%	0%	0%	0%	0%	30%	20%	0%	pest or weed control at 500 g/ha (Kochia (Kochia scoparia) [1]; [15]): 0%; pest or weed control at 125 g/ha ([2]; preemergence, 0 to 100 scale where 0 is no effect and 100 is complete control, approx. 10 d, read-out: Barnyardgrass plant response rating): 0%; pest or weed control at 125 g/ha ([3]; preemergence, 0 to 100 scale where 0 is no effect and 100 is complete control, approx. 10 d, read-out: Foxtail, Giant plant response rating): 0%; pest or weed control at 500 g/ha ([3]; preemergence, 0 to 100 scale where 0 is no effect and 100 is complete control, read-out: Foxtail, Giant plant response rating): 0%; pest or weed control at 500 g/ha [4, 15]: 0%; pest or weed control at 500 g/ha [5, 15]: 0%; pest or weed control at 500 g/ha [6, 15]: 0%
